According to EP1192182B1, “PITUITARY ADENYLATE CYCLASE ACTIVATING PEPTIDE (PACAP) RECEPTOR 3 (R3) AGONISTS AND THEIR PHARMACOLOGICAL METHODS OF USE” (priority 1999, dated 2001):
Positions of bridges follow the written chain, without caps; N, C: chain ends. Non-standard residues stand in square brackets, D forms with d. Residues, ends and D or L forms follow the SMILES beside them. Nle = CCCC[C@H](N)C(=O)O

Legend:
[1] = Peptide-induced elevation of plasma insulin after IVGTT; assay type: in vivo; settings: one minute after IVGTT (0.4g/kg glucose), 1 nmole/kg peptide i.v., Wistar rats
Protocol: Wistar rats are fasted overnight (17 hrs) and then anesthetized with pentobarbital (0.1 ml/100 g BW). Glucose (0.4 g/kg dissolved in 1% human albumin-saline) +/- peptide (dissolved in 1% human albumin-saline) is injected intravenously into the tail vein. The rats are eye-bled 1 minute after the injection and 50-100ul of the plasma are assayed for insulin level with the Linco RIA kit (Linco Research, Inc., St. Charles, MO).
(§1) In accordance with the protocol of example 2 above, overnight fasted Wistar rats were anesthetized with pentobarital; i.v. injected with glucose ± peptide and eye bled after 1 minute. N=12 rats/group. […] The peptide or vehicle was given i.v. followed by a glucose load given i.p. in accordance with example 3. The plasma glucose was followed over the time period indicated.
Plasma insulin: Data are expressed as % of plasma insulin one minute after IVGTT (0.4g/kg glucose) with either saline, 0.1nmol/kg P51, P55, P60, P66 or 1 nmole/kg of the other peptides including peptides which are not part of the present invention in Wistar rats. Blood was drawn from the eye and insulin was measured with the rat insulin RIA kit (Linco Research, Inc, St. Charles, MO).

[2] = Intraperitoneal glucose tolerance test (IPGTT), plasma glucose; assay type: in vivo, Wistar rats; settings: for Plasma Glucose (% of Basal) i.v.: plasma glucose area under the curve after IPGTT (1 g/kg glucose), % of vehicle, 1 nmol/kg peptide i.v.
Protocol: Wistar rats are fasted overnight and then anesthetized with pentobarbital. The rats were eye-bled (zero time) and the peptide ( in 1% human albumin) was injected into the tail vein. Five minutes later, 1 g/kg of glucose (in saline) was injected intraperitoneally, and the rats were eye-bled after 15, 30 and 60 minutes. Plasma glucose levels were determined using the Technicon Axon autoanalyzer, Bayer Diagnosics division of Bayer Corporation, Tarrytown NY, operated using Method No. SM4-2143F90 "Glucose".
as §1
Wistar rats were fasted overnight and then anesthetized with Pentobarbital. The rats were eye-bled (zero time) and the peptide (in 1 % human albumin) was injected subcutaneously. Five minutes later, 1 g/kg of glucose (in saline) was injected intraperitoneally, and the rats were eye-bled after 30 minutes.
Plasma glucose: Data are expressed as % of vehicle of plasma glucose area under the curve after IPGTT (1 g/kg glucose) after treatment with 1 nmol/kg dose of the peptide. […] The present Inventors have shown for the first time that this is because the effects of R2 and R3 on glucose tend to cancel each other out. […] Therefore, R3-selectlvlty appears to be a desirable attribute for medicaments which are to be employed in achieving blood glucose reduction, for treatment of type 2 diabetes.

[3] = Heart rate in conscious dogs; settings: i.v., AUC of first 10 minutes of heart rate change
Protocol: Beagle dogs were put into a sling where they have been trained to stand for up to 3 hours. The cuff of the heart rate monitor was placed around the tail of the dog.
Saline was injected into the cephalic vein and heart rate monitored every 2 minutes to establish a baseline. After 10 minutes, peptide, including peptides which are not part of the invention, was injected and heart rate monitored every 2 minutes for the next 20 minutes. If heart rate was normal at that time, a higher dose was given and heart rate monitored for 20 minutes.

[4] = in vivo; cited from earlier work
[5] = test system: rat islets; assay: Insulin release from isolated rat islets; assay type: cell-based, Sprague-Dawley rats; settings: peptide 10nM for 2hrs, 8mM glucose; % of [insulin] in 8mM glucose alone
Protocol: Sprague Dawley rats (275-320 g) were used as the source of donor islets. Briefly, the pancreas was filled with 10 ml of cold reconstituted Liberase RI (Boehringer Manheim), harvested and incubated with additional 5 ml enzyme solution in water bath for 30 minutes. Tissue suspension was washed twice with cold 10% FBS/Hanks buffer (Gibco), resuspended in 8 ml 25% ficoll (Sigma) and then layered with 5 ml each of 23%, 20% and 11 % ficoll. The islets in the 20% layer after centrifugation were removed, washed twice with cold 10% FBS/Hank buffer and resuspended in 10% FBS/RPMI 1640 media (Sigma).
Islet insulin release: Rat islets were isolated from Sprague-Dawley rats as described in example 1 and treated with either vehicle or specified peptide (10nM) for 2hrs. Insulin concentration in the medium was measured with the Linco rat insulin RIA kit. Glucose concentration in the medium was 8mM. The data are expressed as % of [insulin] in 8mM glucose alone. No polypeptide-induced Increases in insulin concentration were observed al 3 mM glucose; thus, the insulin releasing activity of these polypeptides are glucose-dependent. It should be noted that the following Table includes data for polypeptides which are not part of the present invention.

[6] = Airway hyperresponsiveness in the primate acute asthma model; assay type: in vivo, cynomolgus monkeys (Macaca fascicularis)
Protocol: Male cynomolgus monkeys (Macaca fascicularis) used in this study were maintained at constant temperature and humidity, with a twelve hour light cycle. They were fed twice daily, except on an experimental day when food was withheld the night before the procedure. Water was available ad lib at all times.
Airway hyperresponsiveness (AHR)(baseline) was measured 1 week before the control (no treatment) antigen challenge, and again 24hrs after antigen challenge. Antigen-induced airway hyperresponsiveness was measured by a fall in the PC100 (the concentration of methacholine required to cause a 100% increase in lung resistance) at 24hr compared to baseline. After 2 weeks rest, another baseline measurement of AHR was performed. […] AHR was again measured, and the fall in PC100 with treatment was compared to that without treatment. […]
The endotracheal tube was connected to a Harvard Ventilator adjusted to deliver 30-35 breaths per minute. Airflow was measured by a Fleisch pneumotachograph and thoracic pressure was measured by a validyne pressure transducer (as the difference between the pressure at the distal end of the et tube and room pressure). […]
Antigen challenge: This was an inhalation challenge with Ascaris suum. […] 30 breaths of antigen were administered after which the acute bronchoconstriction was monitored for 15min. […]

[7] = biological target: T1, PACAP-R3 (Homo sapiens, UniProt P41587); settings: literature; cited from earlier work
T1 sequence (P41587 24-438): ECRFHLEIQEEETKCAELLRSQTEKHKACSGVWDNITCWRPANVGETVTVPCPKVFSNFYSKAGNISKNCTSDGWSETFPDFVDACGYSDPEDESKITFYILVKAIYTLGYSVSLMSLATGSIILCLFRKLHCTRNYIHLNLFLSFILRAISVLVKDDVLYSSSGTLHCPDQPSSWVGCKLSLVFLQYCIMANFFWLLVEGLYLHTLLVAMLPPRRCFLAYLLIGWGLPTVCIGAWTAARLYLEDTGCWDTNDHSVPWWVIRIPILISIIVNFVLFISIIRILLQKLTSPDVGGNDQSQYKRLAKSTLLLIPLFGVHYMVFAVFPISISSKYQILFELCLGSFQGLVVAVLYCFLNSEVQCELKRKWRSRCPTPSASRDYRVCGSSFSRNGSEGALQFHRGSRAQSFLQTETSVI

[8] = test system: guinea pig tracheal smooth muscle; settings: Bolin et al 1995; US 5,677,419; cited from earlier work

| Molecule | Plasma Insulin (% of Basal) [1] | increases plasma glucose level ([2]; IPGTT, 1 nmol/kg) [%] | Plasma Glucose (% of Basal) i.v. [2] | potency in heart rate increase, fold less potent than PACAP27 or maxadilan [3] | glucose disposal in the rat ([2]; 1 nmole/kg dose, subcutaneous route, FIG. 7 legend) | plasma half-life [4] | Islet Insulin Release (% of Basal) [5] | Delta log10 PC100, Mean, Treated ([6]; 0.6ug/mg aerosol 10 minutes before antigen challenge, +24hr minus baseline, N 4) | % Inhibition of induced AHR ([6]; 0.6ug/mg aerosol, P(Treated vs Control) 0.240) [%] | PACAP-R3 selectivity [7] | relaxing guinea pig tracheal smooth muscle [8] |
| --- | --- | --- | --- | --- | --- | --- | --- | --- | --- | --- | --- |
| [K15, R16, L27]VIP(1-7)/GRF(8-27) [Peptide R2P1] | 216 % of Basal | 14 | 114 % of Basal | at least 10 fold |  |  |  |  |  |  |  |
| HAEGTFTSDV SSYLEGQAAK EFIAWLKGR-NH2 [GLP-1] |  |  |  |  | enhance glucose disposal | a few minutes |  |  |  |  |  |
| CCCC[C@H](NC(=O)[C@H](CCC(N)=O)NC(=O)[C@H](CCCCN)NC(=O)[C@H](CCCNC(=N)N)NC(=O)[C@H](CC(C)C)NC(=O)[C@H](CCCCN)NC(=O)[C@@H](NC(=O)[C@H](Cc1ccc(O)cc1)NC(=O)[C@H](CC(N)=O)NC(=O)[C@H](CCC(=O)O)NC(=O)[C@@H](NC(=O)[C@H](Cc1ccccc1)NC(=O)[C@@H](NC(=O)[C@H](C)NC(=O)[C@H](CC(=O)O)NC(=O)[C@H](CO)NC(=O)[C@H](Cc1c[nH]cn1)NC(C)=O)C(C)C)[C@@H](C)O)[C@@H](C)O)C(=O)N[C@@H](C)C(=O)N[C@@H](C)C(=O)N[C@@H](CCCCN)C(=O)N[C@H]1CCCCNC(=O)C[C@@H](C(=O)N[C@@H](CC(C)C)C(=O)N[C@@H](CCCCN)C(=O)N[C@@H](CCCCN)C(=O)NCC(=O)NCC(=O)N[C@H](C(N)=O)[C@@H](C)O)NC(=O)[C@H](CC(N)=O)NC(=O)[C@H](CC(C)C)NC(=O)[C@H](Cc2ccc(O)cc2)NC1=O [Peptide R3P0] (Ac-HSDAVFTENYTKLRKQ[Nle]AAKKYLNDLKKGGT-NH2; lactam 21-25 (inferred)) |  |  | 77 % of Basal |  |  |  | 264 % of Basal | -0.150 | 54 | greater than 100 fold | active |
